According to patent publication US20250332212A1, “METHOD FOR TREATING OR PREVENTING ALOPECIA” (Suzhou Mingren Pharmaceutical Biotechnology Co., Ltd., priority 2024, published 2025):
Square brackets hold non-standard residues; d marks the D form. Ends that are not written are not given here. pS = N[C@@H](COP(=O)(O)O)C(=O)O

What was measured:
integrin β1 = experiment: Integrin β1 expression in skin tissue (qPCR, immunoblotting, immunofluorescence); format: in vivo, mouse
Text: In this example, the mRNA expression levels of RGD-targeting molecules in the skin tissues of three groups of mice, namely, the AGA model control group, the model group and the JP1-treated group, were further examined.
To verify whether JP1 targeted integrin molecules are localized in hair follicles in the skin tissue, this example detected the expression levels, tissue localization, and distribution of integrin αv and integrin β1 in the skin tissue of the mouse model in Example 6 using immunofluorescence staining.
(§1) 4.1) Protein extraction: 70 mg of skin tissue was placed in a 1.5 mL centrifuge tube, and 500 μL of tissue lysate RIPA containing protease inhibitor and phosphatase inhibitor was added. The tissue was placed on an ice box, pulverized by a tissue grinder, and then ultrasonically crushed to obtain a tissue suspension, which was then placed in a rotary windmill at 4° C. to be lysed for 2 h. The centrifuge was set at 12,000×g, 4° C., centrifuged for 15 min, and the supernatant was collected as the total protein.
(§2) 5.1) Heating of protein samples: the total protein content of each tissue was 50 μg; calculate the volume of a corresponding protein sample, make up the volume with saline to 16 μL, then add 4 μL of 5×SDS sampling buffer, heat at 100° C. for 5 min, and then cool at room temperature and store at −20° C.
(§3) 7.1) Dilute the specific gene amplification primers to 10 µM in ddH2O, prepare the qPCR reaction system according to the instructions in the kit and add them sequentially into a 384-well plate.
(§4) 7.3) Relative mRNA expression levels of genes were calculated by the […] relative quantification method using GAPDH as an internal reference.
9.5) Primary antibody incubation: the tissue was circled by the histochemical pen, about 50 μL of primary antibody was added dropwise to the tissue, and incubated in a wet box overnight at 4° C., washed 3 times with PBS.

AR, FOXD3, and FOXI1 = experiment: qPCR of other predicted SP1 transcription factors in skin tissue; format: in vivo, mouse; conditions: P>0.05
Description: Four transcription factors that can bind to the SP1 promoter region were obtained by taking the intersection of the predicted data: E2F1, AR, FOXD3, and FOXI1 (FIG. 13A).
as §3, §4

[1] = system: TP-induced AGA model mice; experiment: TP-induced AGA model, Animal model II (JP1 topical, dose-effect); format: in vivo, C57BL/6J male mice; conditions: for hair coverage on the 18th day: twice a day
Description: To prolong the action time of JP1, the design scheme of the animal model in this example adjusted the once-a-day of the first model to twice-a-day administration with an interval of 6 h (FIG. 6A). For details of the experiments, please refer to “Animal model II” of “1. TP-induced AGA model” in “Experimental Methods” below.
(§5) The mice used in this study were 5-week-old C57BL/6J male mice (18-20 g), which were purchased from Jiangsu Jicui Pharmachem Biotechnology Co. All the animals used in the experiments were housed in the SPF-level environment of the Medical Laboratory Animal Center of Nanjing Medical University, and the relevant animal experimental operations were approved by the Animal Ethics Committee of Nanjing Medical University. The control group was left untreated, and the other groups were injected with TP subcutaneously on their backs every day. Two weeks later, the hair on the backs of the mice was shaved with an electric razor, covering an area of 2 cm×4 cm, and then the residual hair was removed with a hair removal cream. The subcutaneous injections of TP on the shaved backs of the mice in the AGA model was continued until the end of the experimental period, and the administration of TP in each of the treatment groups was begun on the 1st day of the dehairing process.
In addition to the normal control group (denoted as control) n=20, all mice injected subcutaneously with TP were randomly divided into the following groups (n=20): the model group (denoted as model), the 0.1% JP1, the 0.5% JP1, the 1% JP1 (all administered by topical dermal application), and the 5% minoxidil group.
(§6) Mice were weighed every two days during the experiment. Skin color was assessed against skin score charts. The mice were euthanized and treated at the end of the experiment, and skin tissues were taken from the dorsal decorticated area of the mice. Some of the tissues were fixed with 4% paraformaldehyde solution and then paraffin sections were made for H&E or immunofluorescence staining, etc., and some of the tissues were stored in the refrigerator at −80° C. for relevant molecular expression assays (qRT-PCR, Western Blot, IP, etc.).
(§7) 8.1) Sampling and fixation: After the experiment, skin tissue was taken from the depilated area on the back of the mouse and placed in a 10 mL EP tube. 4% paraformaldehyde was added to the EP tube, and all tissues were immersed to denature and coagulate the proteins of the skin tissue. The original morphology and structure of the cells were maintained.
(§8) 8.6) H&E staining: the sections pretreated in distilled water were put into aqueous hematoxylin solution for a few minutes for staining. The color was separated in acid water and ammonia for a few seconds each. After rinsing in running water for 1 h, the sections were placed in distilled water for a few moments. The sections were dehydrated in 70% and 90% alcohol for 10 min each, and stained in alcoholic eosin stain for 2-3 min.

[2] = system: TP-induced AGA model mice; experiment: TP-induced AGA model, Animal model III (specific inhibition of SP1 by MTA); format: in vivo, C57BL/6J male mice
Text: To verify that JP1 promotes AGA follicle regeneration through the activation of the Wnt/β-catenin signaling pathway via the MAPK/E2F1/SP1 signaling axis, the example constructed a mouse model of AGA with specific inhibition of SP1 (FIG. 15A). The specific experimental details are described according to “Animal model III” of “1. TP-induced AGA model” in “Experimental Methods”.
To further confirm that JP1 promotes the growth of hair follicles on the back of AGA model mice through the SP1-regulated Wnt/β-catenin signaling pathway at the histomorphometric level, H&E staining was performed on the skin tissues of the model mice of Example 15 at different time points (days 4, 8, and 12 post-intervention).
as §5
In addition to the normal control group (denoted as control) n=20, all mice injected subcutaneously with TP were randomly divided into the following groups (n=20): the model group (denoted as model), the 1% JP1 (skin-coated), and the 1% JP1+MTA group. […] MTA was administered at a dose of 0.3 mg/kg/d, qd, intraperitoneally, 100 μL/dose.
as §6, §7, §8

p-ERK = experiment: Immunoblotting of p-ERK in skin tissue; format: in vivo, mouse; conditions: P<0.05, dose-effect relationship
Description: as §1, §2
5.7) Primary antibody incubation: the cut protein bands were placed into the corresponding primary antibody and incubated at 4° C. on a shaker overnight, washed with TBST 3 times for 10 min/time.

[3] = 1% JP1 skin-coated, MTA 0.3 mg/kg/d intraperitoneally

## FPGSDRF-RGD (FPG[pS]DRFRGD) [JP1, amino acid S is phosphorylated; JWA peptide]
Integrin β1; each JP1 intervention group, localized in the site of hair follicles
  integrin β1 expression, immunofluorescence staining: elevated
Integrin β1; skin tissue, immunoblotting, JP1 P<0.01
  integrin β1 protein level (TP-down-regulated): reversed
Integrin β1; skin tissue, qPCR, P<0.01
  integrin β1 expression at the end of the model: returned to control levels
Integrin β1; skin tissue, qPCR, decreased in TP model group, P<0.01
  integrin β1 mRNA expression after JP1 intervention: significantly elevated
AR, FOXD3, and FOXI1
  mRNA expression of other molecules (predicted SP1 transcription factors): did not change significantly
[1]; 0.1% JP1 topical
  hair coverage on the 18th day: lowest
[1]; 1% JP1 group
  hair bulb size on day 11 among groups: largest
[1]; 1% JP1 topical
  hair coverage on the 18th day: highest hair coverage
[1]; H&E longitudinal, model group just entered the anagen phase
  hair follicle phase on day 11: mid-growth phase
[1]; H&E transverse sections, day 11
  total number of hair follicles vs model group: increased significantly and dose-dependently
[1]; JP1 or minoxidil intervention
  effect on growth cycle of hair follicles: accelerate the entry of hair follicles into the anagen phase and shorten the resting phase
[1]; day 11
  diameter of the hair bulb vs model group: significantly larger than that of the model group
[1]; during the experiment
  difference between body weights of the groups: no statistically significant difference
[1]; medium and high dose JP1 group, model group entered the resting phase
  hair follicle phase on day 32: entered the anagen phase again
[1]; skin-coating 0.1%, 0.5%, 1% JP1
  dose-effect relationship of AGA hair follicle regeneration: significant dose-effect relationship
[1]; topical, model group appeared orange
  skin color on the 11th day: changed to gray
[2]; [3]
  skin color on the back, day 8: turned gray
  skin color on the back, day 10: changed significantly to black-gray
[2]; H&E longitudinal section, 1% JP1
  hair follicle morphology at day 8 vs 1% JP1+MTA group: hair follicles extended downward and the bulbous part of hairs expanded
[2]; H&E, day 12, 1% JP1 P<0.001
  diameter of the hair bulb: increased
  thickness of the dermis: increased
[2]; skin transection, day 8 and day 12, P<0.001
  total number of hair follicles vs model group and 1% JP1+MTA group: significantly more
p-ERK
  p-ERK expression level: elevated
